Experimental data: publication PMC11617653, “Macrocyclic Inhibitors Targeting the Prime Site of the Fibrinolytic Serine Protease Plasmin” (Chemmedchem, 2024)
Several values for one entry are separate records, joined by “and”; a condition that tells them apart may be missing. Equal entries are not always repeated.

Experiments:
[1] = biological target: thrombin (Homo sapiens, UniProt P00734); experiment: Selectivity: inhibition of thrombin; assay type: biochemical; conditions: deduced from pre-assays with only three inhibitor concentrations; read-out: Thrombin K i
Method: (§1) For these three proteases a selectivity index (SI=K i(protease)/K i(plasmin)) was calculated, which is provided in brackets after the inhibition constants (Table 3).
(§2) The measurements with the related trypsin‐like serine proteases trypsin, plasma kallikrein, factor XIa, thrombin, activated protein Ca and factor Xa used in selectivity studies were performed as described previously.[11, 12]

[2] = biological target: factor Xa (fXa) (Homo sapiens, UniProt P00742); experiment: Selectivity: inhibition of factor Xa; assay type: biochemical; conditions: deduced from pre-assays with only three inhibitor concentrations; read-out: fXa K i
Chain of factor Xa (fXa) (P00742 41-179): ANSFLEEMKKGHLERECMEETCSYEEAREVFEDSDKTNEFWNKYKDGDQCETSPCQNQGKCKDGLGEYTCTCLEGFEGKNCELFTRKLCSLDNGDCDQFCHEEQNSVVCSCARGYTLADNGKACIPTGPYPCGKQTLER
Chain of factor Xa (fXa) (P00742 235-488): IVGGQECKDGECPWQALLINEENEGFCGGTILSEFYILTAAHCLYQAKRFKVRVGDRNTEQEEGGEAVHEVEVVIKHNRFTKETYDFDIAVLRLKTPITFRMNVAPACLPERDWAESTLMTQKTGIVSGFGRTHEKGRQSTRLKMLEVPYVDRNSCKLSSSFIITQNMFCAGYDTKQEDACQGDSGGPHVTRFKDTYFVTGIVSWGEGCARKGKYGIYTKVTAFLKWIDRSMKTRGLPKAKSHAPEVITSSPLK
Method: as §1, §2

[3] = biological target: factor XIa (fXIa) (Homo sapiens, UniProt P03951); experiment: Selectivity: inhibition of factor XIa; assay type: biochemical; conditions: for fXIa selectivity index K i(protease)/Ki(plasmin): in brackets; for Ki: read-out: fXIa K i
Chain of factor XIa (fXIa) (P03951 19-387): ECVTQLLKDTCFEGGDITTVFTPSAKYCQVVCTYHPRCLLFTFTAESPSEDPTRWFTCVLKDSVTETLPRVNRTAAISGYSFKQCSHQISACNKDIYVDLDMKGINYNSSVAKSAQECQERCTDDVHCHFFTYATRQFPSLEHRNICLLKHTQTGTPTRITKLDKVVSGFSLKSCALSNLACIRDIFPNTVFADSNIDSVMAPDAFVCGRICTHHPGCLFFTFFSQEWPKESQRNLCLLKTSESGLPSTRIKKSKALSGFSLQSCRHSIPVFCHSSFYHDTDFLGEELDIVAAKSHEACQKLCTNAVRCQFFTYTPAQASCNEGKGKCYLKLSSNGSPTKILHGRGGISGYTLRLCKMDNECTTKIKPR
Chain of factor XIa (fXIa) (P03951 388-625): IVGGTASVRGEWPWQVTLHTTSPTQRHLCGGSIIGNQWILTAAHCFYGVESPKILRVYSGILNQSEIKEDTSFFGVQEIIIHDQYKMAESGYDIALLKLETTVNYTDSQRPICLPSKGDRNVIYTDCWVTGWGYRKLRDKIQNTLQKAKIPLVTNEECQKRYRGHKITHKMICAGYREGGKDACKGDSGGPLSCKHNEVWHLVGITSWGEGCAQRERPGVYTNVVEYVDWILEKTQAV
Method: as §1, §2

[4] = biological target: T1, human plasmin (Homo sapiens, UniProt P00747); experiment: Inhibition of human plasmin, fluorogenic substrate Mes-DArg-Phe-Arg-AMC; assay type: biochemical
T1 construct: purchased Calbiochem
T1 sequence (P00747 581-810): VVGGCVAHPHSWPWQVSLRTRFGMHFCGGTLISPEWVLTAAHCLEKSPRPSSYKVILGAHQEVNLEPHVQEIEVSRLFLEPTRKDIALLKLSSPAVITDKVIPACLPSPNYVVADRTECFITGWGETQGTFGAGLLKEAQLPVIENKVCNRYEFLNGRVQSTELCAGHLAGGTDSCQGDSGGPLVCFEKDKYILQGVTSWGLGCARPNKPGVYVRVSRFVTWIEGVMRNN
T1 sequence (P00747 97-580): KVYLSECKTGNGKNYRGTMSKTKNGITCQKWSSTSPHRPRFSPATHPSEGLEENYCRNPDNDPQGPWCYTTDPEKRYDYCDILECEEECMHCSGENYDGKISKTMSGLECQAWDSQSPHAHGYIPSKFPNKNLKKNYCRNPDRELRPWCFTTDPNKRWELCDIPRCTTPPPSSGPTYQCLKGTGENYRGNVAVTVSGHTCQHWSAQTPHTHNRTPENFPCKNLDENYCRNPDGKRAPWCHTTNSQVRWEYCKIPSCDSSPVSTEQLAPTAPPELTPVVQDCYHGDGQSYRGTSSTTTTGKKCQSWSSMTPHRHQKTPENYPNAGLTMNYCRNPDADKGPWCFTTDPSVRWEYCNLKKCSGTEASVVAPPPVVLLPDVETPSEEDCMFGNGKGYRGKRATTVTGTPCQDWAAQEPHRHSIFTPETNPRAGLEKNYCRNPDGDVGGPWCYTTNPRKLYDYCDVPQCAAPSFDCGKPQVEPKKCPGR
Method: All inhibitors prepared in this study act as reversible competitive plasmin inhibitors, their K i values were calculated by fitting the steady‐state velocities as function of the inhibitor concentrations using equation 1. 4‐aminophenylalanine (Phe(4‐NH2)) was incorporated as P1’ residue in the first inhibitor series, which enabled a macrocyclization via amide bond formation from its side chain amino group using various linker segments and P2’ residues (Table 1). […] The improved potency of SFTI‐1 analogues with basic P2’ residues[9] stimulated the incorporation of Arg in that position leading to inhibitor 4 with a slightly stronger inhibitory potency. A significant improvement could be achieved when using 3‐ or 4‐aminophenylacetic acid as P2’ group in combination with elongated linker residues (5‐6). […] However, inhibitor 9 is a twofold stronger plasmin inhibitor compared to its analogue 8.
For these inhibitors the steady‐state velocities were calculated by fitting the progress curves to equation 2 providing an additional apparent first‐order rate constant k obs for each curve. The steady‐state rates were used for K i determination with equation 1 and the k obs values for the calculation of the association rate constants k on according to equation 3. The dissociation rate constant k off was calculated from the known K i and k on values using equation 4. The enzyme kinetic evaluation of slow‐binding inhibitors of plasmin has already been described in detail in our two previous publications.[11, 12]
All measurements were conducted as triplicates in black 96‐well FluoroNunc MaxiSorp plates (Nunc, Langenselbold, Germany) and suitable fluorogenic substrates at room temperature. […] Each well contained a total volume of 180 μL consisting of 100 μL of inhibitor dissolved in buffer, 40 μL of the substrate Mes‐DArg‐Phe‐Arg‐AMC[11] (100 μM in assay, KM=16.1 μM) dissolved in water and 40 μL of plasmin solution (0.27 nM in assay). The following equations were used for the enzyme kinetic analysis as described in the results section and in our previous publications.[11, 12] (1) [drawing 71] (2) [drawing 72] (3) [drawing 73] (4) [drawing 74]

[5] = Water solubility (qualitative comparison); conditions: compared to inhibitor 28
[6] = biological target: plasma kallikrein (PK) (Homo sapiens, UniProt P03952); experiment: Selectivity: inhibition of plasma kallikrein; assay type: biochemical; conditions: for PK selectivity index K i(protease)/Ki(plasmin): in brackets; for Ki: read-out: PK K i
Chain of plasma kallikrein (PK) (P03952 391-638): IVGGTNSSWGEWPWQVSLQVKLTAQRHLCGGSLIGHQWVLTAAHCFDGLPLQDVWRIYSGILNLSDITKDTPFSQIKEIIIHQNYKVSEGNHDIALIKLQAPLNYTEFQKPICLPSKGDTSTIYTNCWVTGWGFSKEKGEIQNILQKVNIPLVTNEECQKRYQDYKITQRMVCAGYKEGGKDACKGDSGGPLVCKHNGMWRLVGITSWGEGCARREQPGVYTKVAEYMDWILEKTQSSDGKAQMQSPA
Chain of plasma kallikrein (PK) (P03952 20-390): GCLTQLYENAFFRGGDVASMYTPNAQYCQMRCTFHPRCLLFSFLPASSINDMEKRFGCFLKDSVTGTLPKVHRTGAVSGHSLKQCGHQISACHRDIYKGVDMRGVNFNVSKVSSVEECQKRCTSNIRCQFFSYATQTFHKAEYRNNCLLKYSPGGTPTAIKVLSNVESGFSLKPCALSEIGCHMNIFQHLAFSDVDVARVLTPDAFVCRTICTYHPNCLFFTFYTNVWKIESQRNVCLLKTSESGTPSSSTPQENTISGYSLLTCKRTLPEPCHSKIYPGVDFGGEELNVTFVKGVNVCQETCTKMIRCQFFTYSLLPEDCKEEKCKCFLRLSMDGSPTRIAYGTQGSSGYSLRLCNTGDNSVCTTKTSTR
Method: as §1, §2

[7] = biological target: activated protein C (aPC) (Homo sapiens, UniProt P04070); experiment: Selectivity: inhibition of activated protein C; assay type: biochemical; conditions: deduced from pre-assays with only three inhibitor concentrations; read-out: aPC K i
Chain of activated protein C (aPC) (P04070 43-197): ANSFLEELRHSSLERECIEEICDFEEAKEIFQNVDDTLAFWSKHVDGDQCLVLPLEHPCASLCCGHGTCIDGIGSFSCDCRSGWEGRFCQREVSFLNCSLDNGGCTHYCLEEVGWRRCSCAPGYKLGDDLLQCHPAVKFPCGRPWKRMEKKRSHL
Chain of activated protein C (aPC) (P04070 212-461): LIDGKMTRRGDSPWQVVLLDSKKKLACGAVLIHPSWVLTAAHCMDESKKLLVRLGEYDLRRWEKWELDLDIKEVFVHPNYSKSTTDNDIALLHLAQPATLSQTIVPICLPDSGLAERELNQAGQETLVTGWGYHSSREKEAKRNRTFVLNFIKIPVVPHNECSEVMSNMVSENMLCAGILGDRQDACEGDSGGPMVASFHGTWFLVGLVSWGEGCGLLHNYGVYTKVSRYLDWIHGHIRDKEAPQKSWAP
Method: as §1, §2

[8] = tested on: plasmin; conditions: read-out: IC50, plasmin; Figure 1; cited from earlier work
[9] = biological target: PK; conditions: no reference given; read-out: K i, PK; cited from earlier work
[10] = K i (nM), inhibition of plasmin, series two, substituted Bpa in P1', and acyclic analogues, steady-state velocities, equation 1
[11] = Plasmin K i, Table 3 selectivity

| Molecule | Ki [1] | Ki [2] | fXIa selectivity index K i(protease)/Ki(plasmin) [3] | Ki [3] | Ki [4, 10] | Ki [4, 11] | water solubility [5] | PK selectivity index K i(protease)/Ki(plasmin) [6] | Ki [6] | Ki [7] | IC50 [8] | Ki [9] |
| --- | --- | --- | --- | --- | --- | --- | --- | --- | --- | --- | --- | --- |
| Cc1ccc2cc1NC(=O)C(CCc1ccccc1)NC(=O)CCCNC(=O)Cc1ccc(cc1)NC(=O)C(NC(=O)C1CCC(CN)CC1)Cc1ccc-2cc1 (stereo not drawn) [inhibitor 31] | > 75 µM | > 80 µM | 117 | 0.088 ± 0.023 µM | 0.831 ± 0.154 nM | 0.831 nM | reduced water solubility | 89 | 0.067 ± 0.004 µM | > 10 µM |  |  |
| CC(C)NC(=O)c1ccc2cc1NC(=O)CNC(=O)CCCNC(=O)Cc1ccc(cc1)NC(=O)C(NC(=O)C1CCC(CN)CC1)Cc1ccc-2cc1 [inhibitor 33, (S)‐4‐((1r,4S)‐4‐(aminomethyl)cyclohexane‐1‐carboxamido)‐N‐isopropyl‐5,9,14,17‐tetraoxo‐6,10,15,18‐tetraaza‐1(1,3),2,7(1,4)‐tribenzenacyclooctadecaphane‐14‐carboxamide] | > 45 µM | > 10 µM | 18 | 0.0081 ± 0.0016 µM | 0.52 nM and 0.524 nM | 0.524 nM |  | 21 | 0.0094 ± 0.0021 µM | > 35 µM |  |  |
| CCCCCCCCNC(=O)[C@H](Cc1ccc(OCc2ccncc2)cc1)NC(=O)[C@H]1CC[C@H](CN)CC1 [YO-2] |  |  |  |  |  |  |  |  |  |  | 0.24 µM |  |
| Cc1ccc2cc1NC(=O)CNC(=O)CCNC(=O)c1ccc3cc(ccc3c1)NC(=O)[C@@H](NC(=O)[C@H]1CC[C@H](CN)CC1)Cc1ccc-2cc1 [inhibitor 45] | > 40 µM | > 40 µM | 137 | 0.32 ± 0.05 µM | 2.53 ± 0.23 nM | 2.53 nM |  | 62 | 0.156 ± 0.035 µM | > 4 µM |  |  |
| aprotinin |  |  |  |  |  |  |  |  |  |  |  | 0.03 µM |
